Assay results taken from article PMC7516806, “Hybrid Antimicrobial Peptide Targeting Staphylococcus aureus and Displaying Anti-infective Activity in a Murine Model” (Frontiers in Microbiology, 2020).
No end group written: not given here.

Tests used:
TNF-α = assay: Cytokine ELISA in infected skin; assay type: in vivo, ICR mice; details: 24 h after treatment, P < 0.05
Protocol: (§1) To assess the antimicrobial activity of the peptide in vivo, a mouse model of subcutaneous infection was used ([Huang et al., 2011a]; [Omolo et al., 2017]). Female Institute for Cancer Research (ICR) mice (SPF, 20–25 g) were purchased from WeiTonglihua Co., Ltd. (Beijing, China), with eight animals per group. The mice were shaved on their backs and disinfected. S. aureus 29213 (100 μL) at a concentration of 1 × 10^8 CFU/mL was injected into the superficial skin of the mice. The mice were divided into four groups (n = 4), as follows: S. aureus + saline, S. aureus + S2 (80× MIC, 100 μL), S. aureus + vancomycin (Van) (80× MIC, 100 μL), and saline. S2, vancomycin, and saline were injected at the same site 1 h after infection. The mice were monitored over 24 h in an environmentally controlled room at 25 ± 1°C and 55 ± 5% relative humidity with a 12 h light/dark cycle.
(§2) The mice were treated as described above. Skin samples were treated according to the manufacturer’s instructions. The levels of tumor necrosis factor-alpha (TNF-α), interleukin-6 (IL-6), and granulocyte-macrophage colony-stimulating factor (GM-CSF) in infected skin were measured using enzyme-linked immunosorbent assay (ELISA) kits following the manufacturer’s instructions.

IL-6 = assay: Cytokine ELISA in infected skin; assay type: in vivo, ICR mice; details: 24 h after treatment, P < 0.05
Protocol: as §1, §2

S. aureus 29213 [1] = assay: Mouse model of subcutaneous infection; assay type: in vivo, ICR mice; details: 80× MIC
Protocol: as §1
(§3) To image the infected skin tissues, the mice were euthanized 24 h after the injection of S. aureus. Samples were fixed in 4% buffered paraformaldehyde and subjected to hematoxylin/eosin (HE) staining. The antimicrobial activity in vivo was determined by colony counting of infected skin samples. Skin homogenates were serially diluted in saline and incubated at 37°C for 24 h.

S. aureus 29213 [2] = assay: Histology (HE) of infected skin tissue; assay type: in vivo, ICR mice; details: 24 h after injection of S. aureus
Protocol: as §1, §3

[3] = tested on: Staphylococcus aureus 29213; assay: Propidium iodide uptake assay; assay type: cell-based; details: 0.5 × MIC, MIC and 2 × MIC; 10 μg/mL PI; ex 535 nm, em 617 nm
Protocol: Staphylococcus aureus 29213 was washed three times with buffer (5 mM HEPES, 5 mM glucose, pH 7.4) after the bacterium grew to the mid-log phase and then diluted to an OD600 = 0.05. Propidium iodide was then added to the final concentration of 10 μg/mL and incubated for 30 min at 4°C. The peptides were added to 12-well plates, which were filled with 2 mL of the cell suspension. An F-4500 fluorescence spectrophotometer (Hitachi, Japan) was employed to measure the fluorescence value at an excitation wavelength of 535 nm and an emission wavelength of 617 nm. Maximal augmentation was monitored, and the fluorescence of the mixture of bacteria and dye served as the blank control ([Morita et al., 2015]).

S. aureus 29213 [4] = assay: Cytoplasmic membrane depolarization, diSC3-5; assay type: cell-based, Staphylococcus aureus; details: 0.4 μM diSC3-5, 100 mM KCl, ex 622 nm, em 670 nm
Protocol: The dye diSC3-5 was employed to assay cytoplasmic membrane depolarization activities ([Shao et al., 2018]). S. aureus 29213 was diluted to an OD600 = 0.05 after washing three times with buffer (5 mM HEPES, 5 mM glucose, pH 7.4) when the bacteria grew to mid-log phase. Then, diSC3-5 at a final concentration of 0.4 μM was added into the medium and incubated for 1–1.5 h. The final concentration of 100 mM KCl was then added to the solution for 15 min. The peptides were added to 12-well plates, which were filled with 2 mL of cell suspension. An F-4500 fluorescence spectrophotometer (Hitachi, Japan) was employed to measure the fluorescence value at an excitation wavelength of 622 nm and an emission wavelength of 670 nm. Maximal augmentation was monitored, and the fluorescence of the mixture of bacteria and dye served as the blank control.

S. typhimurium 7731 = assay: MIC, modified microtiter dilution; assay type: cell-based, Salmonella typhimurium; details: MHB, 2–7 × 10^5 CFU/ml, 37°C, 24 h, no turbidity, at least three independent repeats
Description: (§4) The experiment was repeated at least three times independently.

S. typhimurium 14028 = assay: MIC, modified microtiter dilution; assay type: cell-based, Salmonella typhimurium; details: MHB, 2–7 × 10^5 CFU/ml, 37°C, 24 h, no turbidity, at least three independent repeats
Description: as §4

S. aureus 25923 = assay: MIC, modified microtiter dilution; assay type: cell-based, Staphylococcus aureus; details: MHB, 2–7 × 10^5 CFU/ml, 37°C, 24 h, no turbidity, at least three independent repeats
Description: as §4

S. aureus 29213 [5] = assay: MIC, modified microtiter dilution; assay type: cell-based, Staphylococcus aureus; details: MHB, 2–7 × 10^5 CFU/ml, 37°C, 24 h, no turbidity, at least three independent repeats
Description: as §4

E. coli K88 = details: MHB, 2–7 × 10^5 CFU/ml, 37°C, 24 h, no turbidity, at least three independent repeats
Description: (§5) The bacterial strains Escherichia coli (E. coli) ATCC 25922, E. coli K88, E. coli K99, Pseudomonas aeruginosa (P. aeruginosa) ATCC 27853, Escherichia coli (E. coli) UB1005, Salmonella typhimurium 14028, Salmonella pullorum (S. pullorum) C7913, S. typhimurium C7731, S. aureus ATCC 29213, MRSA ATCC 43300, and S. aureus ATCC 25923 were obtained from the College of Veterinary Medicine, Northeast Agricultural University, China. Lactobacillus plantarum (L. plantarum) 8014, Lactobacillus rhamnosus (L. rhamnosus) 7469, L. rhamnosus 1.0911, L. rhamnosus 1.0936, and L. rhamnosus 1.0385 were obtained from the Key Laboratory of Food College, Northeast Agricultural University, China.
(§6) As in a previous study, the antimicrobial activities of the AMPs were investigated using a modified standard microtiter dilution method ([Dong et al., 2014]). The peptides were serially diluted with a solution containing 0.01% acetic acid and 0.2% bovine serum albumin (BSA, Sigma) in 96-well plates. The bacteria grew to the mid-log phase and then were dissolved in MHB at concentration of 2–7 × 10^5 CFU/ml. The peptides and bacterial solution were mixed in equal volume in a 37°C incubator for 24 h. […] Mueller-Hinton broth with microorganisms was used as the positive control, and the pure broth was used as the negative control. The experiment was repeated at least three times independently.

E. coli K99 = details: MHB, 2–7 × 10^5 CFU/ml, 37°C, 24 h, no turbidity, at least three independent repeats
Description: as §5, §6

L. plantarum 8014 = assay: MIC, modified microtiter dilution; assay type: cell-based, Lactobacillus plantarum; details: 2–7 × 10^5 CFU/ml, 37°C, 24 h, no turbidity, at least three independent repeats
Description: as §4

E. coli UB1005 = assay: MIC, modified microtiter dilution; assay type: cell-based, Escherichia coli; details: MHB, 2–7 × 10^5 CFU/ml, 37°C, 24 h, no turbidity, at least three independent repeats
Description: as §4

E. coli 25922 = assay: MIC, modified microtiter dilution; assay type: cell-based, Escherichia coli; details: MHB, 2–7 × 10^5 CFU/ml, 37°C, 24 h, lowest concentration with no turbidity, at least three independent repeats
Description: as §4

L. rhamnosus 1.0911 = assay: MIC, modified microtiter dilution; assay type: cell-based, Lactobacillus rhamnosus; details: 2–7 × 10^5 CFU/ml, 37°C, 24 h, no turbidity, at least three independent repeats
Description: as §4

L. rhamnosus 1.0385 = assay: MIC, modified microtiter dilution; assay type: cell-based, Lactobacillus rhamnosus; details: 2–7 × 10^5 CFU/ml, 37°C, 24 h, no turbidity, at least three independent repeats
Description: as §4

L. rhamnosus 1.0936 = assay: MIC, modified microtiter dilution; assay type: cell-based, Lactobacillus rhamnosus; details: 2–7 × 10^5 CFU/ml, 37°C, 24 h, no turbidity, at least three independent repeats
Description: as §4

L. rhamnosus 7469 = assay: MIC, modified microtiter dilution; assay type: cell-based, Lactobacillus rhamnosus; details: 2–7 × 10^5 CFU/ml, 37°C, 24 h, no turbidity, at least three independent repeats
Description: as §4

S. aureus 29213 [6] = assay: MIC in the presence of physiological salts; assay type: cell-based, Staphylococcus aureus; details: three independent repeats, unit not given in Table 4
Protocol: as §4
The MIC of peptides was determined in the presence of salts at physiological concentrations (150 mM NaCl, 4.5 mM KCl, 6 μM NH4Cl, 8 μM ZnCl2, 1 mM MgCl2, 2 mM CaCl2, and 4 μM FeCl3) as described previously ([Dong et al., 2014]). All experiments were performed three times independently.

MRSA 43300 = assay type: cell-based, Staphylococcus aureus; details: MHB, 2–7 × 10^5 CFU/ml, 37°C, 24 h, no turbidity, at least three independent repeats
Description: as §4

[7] = tested on: human red blood cells (hRBCs); assay: Hemolysis assay; assay type: cell-based; details: 1.5 h, 37°C, absorbance 570 nm; 0.1% Triton X-100 positive control
Protocol: The cytotoxicity of peptides was determined by healthy human erythrocytes and the murine macrophage cell line RAW 264.7 via a hemolysis assay and MTT dye reduction assay, respectively ([Wang et al., 2018]). In the hemolysis assay, fresh hRBCs from healthy people were centrifuged for 5 min at 1,000 × g and then washed three times with PBS (pH = 7.2). The 100 μL erythrocyte suspension and peptides were incubated for 1.5 h in an incubator at 37°C. The 96-well plates were centrifuged at 1,000 × g for 5 min, and the supernatants were carefully aspirated. The absorbance at 570 nm indicated the leakage of hemoglobin. The hRBCs in the PBS sample was used as the negative control, and 0.1% Triton X-100 addition served as the positive control. In the MTT dye reduction assay, 1.0–2.0 × 10^5 cells were plated in 96-well plates and then treated with various concentrations of peptides for 4 h at 37°C in a 5% CO2 incubator. Subsequently, 50 μL of MTT was added to the plated cells at a final concentration of 0.5 mg/mL and incubated for 4 h. Then, the cells were centrifuged at 1000 × g for 5 min, and the supernatants were discarded. Formazan crystals were dissolved in 150 μL of DMSO, and the OD570 nm was measured using a microplate reader (TECAN GENios F129004; TECAN, Austria). The experiment was repeated three times independently.

S. pullorum 7913 = assay: MIC, modified microtiter dilution; assay type: cell-based, Salmonella pullorum; details: MHB, 2–7 × 10^5 CFU/ml, 37°C, 24 h, no turbidity, at least three independent repeats
Description: as §4

P. aeruginosa 27853 = assay: MIC, modified microtiter dilution; assay type: cell-based, Pseudomonas aeruginosa; details: MHB, 2–7 × 10^5 CFU/ml, 37°C, 24 h, no turbidity, at least three independent repeats
Description: as §4

CN[C@H](CC(C)C)C(=O)N[C@H]1C(=O)N[C@@H](CC(N)=O)C(=O)N[C@H]2C(=O)N[C@H]3C(=O)N[C@H](C(=O)N[C@H](C(=O)O)c4cc(O)cc(O)c4-c4cc3ccc4O)[C@H](O)c3ccc(c(Cl)c3)Oc3cc2cc(c3O[C@@H]2O[C@H](CO)[C@@H](O)[C@H](O)[C@H]2O[C@H]2C[C@](C)(N)[C@H](O)[C@H](C)O2)Oc2ccc(cc2Cl)[C@H]1O [vancomycin, reference compound]
TNF-α generation in infected skin (TNF-α): suppressed | IL-6 generation in infected skin (IL-6): suppressed | decrease in bacterial colonies at infection site versus control group (S. aureus 29213 [1]; 100 μL injected at the infected site 1 h after infection, skin homogenate colony count after 24 h, P < 0.01): 10 fold | ulceration (lesion) size, length × width (S. aureus 29213 [1]; 100 μL, 1 h after infection): significantly reduced ulceration sizes | histomorphological changes of skin tissue (HE) (S. aureus 29213 [2]): good recovery

melittin [reference compound]
PI uptake (PI fluorescence) [3]: rapidly disrupted the bacterial membrane and caused PI uptake | cytoplasmic membrane depolarization (diSC3-5 fluorescence) (S. aureus 29213 [4]): rapid fluorescence intensity increase

RWWWLL-NH2 [Peptide S7]
MIC S. typhimurium 7731 (S. typhimurium 7731): 16 µM | MIC S. typhimurium 14028 (S. typhimurium 14028): 32 µM | MIC S. aureus 25923 (S. aureus 25923): 8 µM | MIC S. aureus 29213 (S. aureus 29213 [5]): 8 µM | MIC E. coli K88 (E. coli K88): 16 µM | MIC E. coli K99 (E. coli K99): 16 µM | MIC L. plantarum 8014 (L. plantarum 8014): >64 µM | MIC E. coli UB1005 (E. coli UB1005): 16 µM | MIC E. coli 25922 (E. coli 25922): 16 µM | MIC L. rhamnosus 1.0911 (L. rhamnosus 1.0911): >64 µM | MIC L. rhamnosus 1.0385 (L. rhamnosus 1.0385): >64 µM | MIC L. rhamnosus 1.0936 (L. rhamnosus 1.0936): >64 µM | MIC L. rhamnosus 7469 (L. rhamnosus 7469): >64 µM | MIC against S. aureus 29213, FeCl3 (S. aureus 29213 [6]; 4 μM FeCl3): 8 µM | MIC against S. aureus 29213, NH4Cl (S. aureus 29213 [6]; 6 μM NH4Cl): 8 µM | MIC against S. aureus 29213, ZnCl2 (S. aureus 29213 [6]; 8 μM ZnCl2): 4 µM | MIC against S. aureus 29213, MgCl2 (S. aureus 29213 [6]; 1 mM MgCl2): 8 µM | MIC against S. aureus 29213, CaCl2 (S. aureus 29213 [6]; 2 mM CaCl2): 16 µM | MIC against S. aureus 29213, KCl (S. aureus 29213 [6]; 4.5 mM KCl): 8 µM | MIC against S. aureus 29213, NaCl (S. aureus 29213 [6]; 150 mM NaCl): 8 µM | MIC MRSA 43300 (MRSA 43300): 8 µM | hemolytic activity against hRBCs [7]: barely exhibited hemolysis effects | MIC S. pullorum 7913 (S. pullorum 7913): >64 µM | MIC P. aeruginosa 27853 (P. aeruginosa 27853): >64 µM
